We go through nine molecules from patent publication US8143282B2, “Heterocyclic compounds” (S*BIO Pte Ltd., priority 2005, dated 2012).

As a reminder, the GI50 is the concentration giving 50% growth inhibition. As a reminder, the AUC(0-t) is exposure summed from dosing to a finite time, without extrapolation to infinity. Usually IC50 stands for the point on the concentration scale where inhibition reaches its midpoint. High values mean weaker potency, low ones greater potency. One may read the half-life as the time needed for the level to fall by half in the phase considered.

The test system of one series is PC3. Kind of series: Cell-based proliferation assay for GI50 (CyQUANT), PC3. Conditions: Homo sapiens, PC-3; PC3, 96 h treatment; read-out: Cellular or Growth Inhibition Activity, GI50, PC3. As for the experimental part: (§1) Human colon cancer cell lines (Colo205, HCT116), Ovarian cancer cell line (A2780), Hepatoma cell line (HEP3B), Prostate cancer cell line (PC3) were obtained from ATCC or ECACC. Colo205 cells were cultivated in RPMI 1640 containing 2 mM L-Glutamine, 5% FBS, 1.0 mM Na Pyruvate, 1 U/ml of penicillin and 1 μg of streptomycin. HCT116 cells were cultivated in McCoy's containing RPMI 1640 containing 2 mM L-Glutamine, 5% FBS, 1 U/ml of penicillin and 1 μg of streptomycin. A2780 cells were cultivated in RPMI 1640 containing 2 mM L-Glutamine, 5% FBS, 1 U/ml of penicillin and 1 μg of streptomycin. HEP3B cells were cultivated in EMEM containing 2 mM L-glutamine, 5% FBS, 1% non essential amino acid, 1 mM Na Pyruvate, 1 U/ml of penicillin and 1 μg of streptomycin. PC3 cells were cultivated in F12K, 2 mM L-glutamine, 5% FBS, 1 U/ml of penicillin and 1 μg of streptomycin. PC3, Colo205, and HCT116 cells were seeded in 96-wells plate at 1000, 5000 and 6000 cells per well respectively. A2780 and HEP3B cells were seeded in 96-wells plate at 4000 cells per well respectively. The plates were incubated at 37° C., 5% CO2, for 24 h. Cells were treated with compounds at various concentrations for 96 h. Cell growth was then monitored using CyQUANT® cell proliferation assay (Invitrogen Pte Ltd). Dose response curves were plotted to determine GI50 values for the compounds using XL-fit (ID Business Solution, Emeryville, Calif.). GI50 is defined as the concentration of compound required for 50% inhibition of cell growth.

Series [1] is described as follows: In vivo pharmacokinetic (PK) studies. Conditions: mouse, plasma, po; mice, hydrochloric acid salt form (2HCl), 50 mg/kg. As to the method:
Compound was dissolved in appropriate solution (saline or DMA and Cremaphor in saline) at 1 mg/ml for intravenous (IV) administration, or in 0.5% methyl cellulose, 0.1% Tween 80 in water at 5 mg/ml for oral administration. Mice were randomized according to body weight, grouped three per time point. Mice were administered single IV dose (10 mg/kg) via tail vein, or single oral dose (50 mg/kg) via gavage. At pre-defined time points (predose, 5 or 10, 30 min, 1, 2, 4, 8, and 24 h), one group of mice was sacrificed by overdose CO2 and blood samples were collected by cardiac puncture. The blood samples were centrifuged immediately for 10 min at 3000 rpm to separate plasma, and plasma was kept frozen at −80° C. until analysis by LC/MS/MS. Before sample analysis, the method was developed for LC/MS/MS assay. The method was validated for signal-response of the calibration standards, auto-sampler stability for ˜15 hours intra-day and inter-day calibration curve using eight calibration standards excluding the blank plasma. QC samples at three different concentrations in triplicates were prepared to determine the accuracy and precision. The extracted QC samples were compared to unextracted samples to determine the extraction efficiency of the analyte. LLOQ was determined by using triplicate samples of 1 ng/mL and 2 ng/mL to obtain accuracy and precision at the low end. Samples were analysed using the validated method. Data was analyzed by the non-compartmental model using WinNolin 4.0 software (Pharsight, Mountain View, Calif., USA). The mean values for the plasma compound concentration-time profiles were used in mouse PK study.
The PK parameter AUC0-last providing the information on the overall exposure of the drug in vivo is one of the key PK/PD parameters that helps in predicting the efficacy of an anti-cancer compound. The higher the AUC value, the better will be the in vivo efficacy of the compound at similar in vitro potency.

The next series has as its system A2780. Kind of series: Cell-based proliferation assay for GI50 (CyQUANT), A2780. Conditions: Homo sapiens; A2780, 96 h treatment; read-out: Cellular or Growth Inhibition Activity, GI50, A2780. As for the experimental part: as §1
The test system of a further series is HEP3B. Description: Cell-based proliferation assay for GI50 (CyQUANT), HEP3B. Conditions: Homo sapiens, 96 h treatment, read-out: Cellular or Growth Inhibition Activity, GI50, HEP3B. As to the method: as §1
For the next series, the target named is T1, HDAC1 enzyme (Homo sapiens, UniProt Q13547).
T1 construct: Amplification of human HDAC1 coding region from this cDNA library was cloned separately into the baculovirus expression pDEST20 vector; made in house; host or cells: SF9 insect cells, pDEST20-HDAC1 baculovirus
Description: In vitro HDAC assay for determination of IC50 values (BIOMOL fluorescent-based HDAC activity assay). Type of series: biochemical. The method, boiled down:
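Recombinant GST-HDAC1, cloned from SW620 cDNA and expressed in Sf9 cells, tested in a fluorogenic Fluor de Lys deacetylase assay. Developer was added for 10 min and fluorescence read at 360/460 nm. IC50 came from concentration series.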

The subject of the next series is Colo205 cells. Kind of series: Cell-based proliferation assay for GI50 (CyQUANT), Colo205. Conditions: Homo sapiens, COLO 205, 96 h treatment, read-out: Cellular or Growth Inhibition Activity in Colo205 cells, GI50. The method, boiled down: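 Cells were seeded at 1000 (PC3), 5000 (Colo205), 6000 (HCT116) or 4000 (HEP3B) per well and left 24 h at 37° C. Compound treatment lasted 96 h. Growth was read by CyQUANT, and GI50 (50% growth inhibition) came from dose-response curves.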

The test system of the next series is HCT116. Description: Cell-based proliferation assay for GI50 (CyQUANT), HCT116. The settings on record: Homo sapiens, HCT-116; HCT116, 96 h treatment; read-out: Cellular or Growth Inhibition Activity, GI50, HCT116. As for the experimental part:
as §1

Series [2] in a line: Measurement of microsomal stability. Format: in vitro ADME. Conditions: pooled human liver microsomes, pH 7.4; human liver microsome, 5 μM test compound, 1.0 mg/ml microsomal protein. As for the experimental part:
Metabolic stability measurements in the in vitro using liver microsomes aids in the prediction of the in vivo hepatic clearance and the compound stability towards phase I biotransformation reactions mediated by P450 isozymes.
Pooled human liver microsome (HLM was purchased from BD Gentest (BD BioSciences). The incubations consisted of test compound (5 μM) or control compound (Verapamil), NADPH-generating system solution A (25 mM NADP^+, 66 mM glucose-6-phosphate, 66 mM MgCl2 in H2O), NADPH-generating system solution B (40 U/ml glucose-6-phosphate dehydrogenase in 5 mM sodium citrate) and 1.0 mg/ml microsomal protein, respectively, in 100 mM potassium phosphate buffer (pH 7.4). Samples were incubated for 0, 5, 15, 30, 45, 60 min. Reaction was terminated with ice-cold 80% acetonitrile and 20% DMSO. Samples were subsequently centrifuged at 4° C. for 15 min at 2,000 rpm. 100 μL of the supernatant was transferred to the LC-MS Plate for analysis. Before quantitative analysis, the compound was tuned in LC/MS machine to get the optimized MS condition. Liquid chromatography was performed on a Luna C18 column (Phenomenex U.S.A, Torrance, Calif.) (2×50 mm, 5 μM). % of the compound remaining (by area) at each time point is calculated with respect to time 0 min. Plot % remaining against time (min) to obtain the curve and use the Prism software to obtain the t1/2.
(Liver microsomes are a subcellular fraction often used to study metabolism.)

Another series has as its system acetylated histone H3. Kind of series: Histone H3 acetylation assay (immuno-blotting) in Colo205 cells. Format: cell-based, Human. The settings on record: 10 μM, 24 h, western-blot. As to the method:
A hallmark of histone deacetylase (HDAC) inhibition is the increase in the acetylation level of histones. Histone acetylation, including H3, H4 and H2A can be detected by immuno-blotting (western-blot). Colo205 cells, approximately 5×10^5 cells, were seeded in the previously described medium, cultivated for 24 h and subsequently treated with HDAC inhibitory agents and a positive control at a final concentration of 10 μM. After 24 h, cells were harvested and lysed according to the instruction from Sigma Mammalian Cell Lysis Kit. The protein concentration was quantified using BCA method (Sigma Pte Ltd). The protein lysate was separated using 4-12% bis-tris SDS-PAGE gel (Invitrogen Pte Ltd) and was transferred onto PVDF membrane (BioRad Pte Ltd). The membrane was probed using primary antibody specific for acetylated histone H3 (Upstate Pte Ltd). The detection antibody, goat anti rabbit antibody conjugated with HRP was used according to the manufacturing instruction (Pierce Pte Ltd). After removing the detection antibody from the membrane, an enhanced chemiluminescent substrate for detection of HRP (Pierce Pte Ltd) was added onto the membrane. After removing the substrate, the membrane was exposed to an X-ray film (Kodak) for 1 sec-20 mins. The X-ray film was developed using the X-ray film processor. The density of each band observed on the developed film could be qualitatively analyzed using UVP Bioimaging software (UVP, Inc, Upland, Calif.). The values were then normalized against the density of actin in the corresponding samples to obtain the expression of the protein.

T1 sequence (Q13547 whole entry): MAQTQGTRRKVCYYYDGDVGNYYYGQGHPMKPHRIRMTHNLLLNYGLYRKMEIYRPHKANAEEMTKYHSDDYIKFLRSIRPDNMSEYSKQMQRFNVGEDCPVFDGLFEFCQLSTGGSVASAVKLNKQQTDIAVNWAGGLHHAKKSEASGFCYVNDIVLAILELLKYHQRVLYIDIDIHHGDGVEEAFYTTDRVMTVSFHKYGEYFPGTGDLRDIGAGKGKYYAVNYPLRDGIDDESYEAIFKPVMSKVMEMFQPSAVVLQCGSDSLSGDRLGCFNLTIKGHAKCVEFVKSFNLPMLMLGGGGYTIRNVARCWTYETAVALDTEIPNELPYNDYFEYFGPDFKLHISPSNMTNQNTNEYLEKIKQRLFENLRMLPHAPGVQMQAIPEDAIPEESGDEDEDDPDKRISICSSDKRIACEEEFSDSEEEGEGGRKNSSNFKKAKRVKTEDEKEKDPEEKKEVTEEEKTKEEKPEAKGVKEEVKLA

Regarding `CN(C)CC(C)(C)Cn1c(CC(C)(C)C)nc2cc(/C=C/C(=O)NO)ccc21` [Compound 1, 3-[1-(3-Dimethylamino-2,2-dimethyl-propyl)-2-(2,2-dimethyl-propyl)-1H-benzoimidazol-5-yl]-N-hydroxy-acrylamide], the GI50 in the series on PC3 was below 500 nM; in the series with A2780 it was below 500 nM; in the series with HEP3B, 500 to 1000 nM; in the series with Colo205 cells, 500 nM; in the series with HCT116, 500 to 1000 nM. The AUC(0-t) in series [1] turned out to be 1870 ng·h/mL. At HDAC1 enzyme, this molecule gave a half-inhibitory concentration (IC50) of 42 nM. In series [2], this molecule gave a half-life at 5 μM above 30 min.
As to `CCCCc1nc2cc(/C=C/C(=O)NO)ccc2n1CCN(CC)CC` [Compound 8, 3-[2-Butyl-1-(2-diethylamino-ethyl)-1H-benzoimidazol-5-yl]-N-hydroxy-acrylamide], the 50% growth inhibitory concentration (GI50) with PC3 was below 500 nM; with A2780 it was 500 to 1000 nM; with HEP3B, 1000 to 5000 nM; in the series on Colo205 cells, 560 nM; in the series on HCT116, 500 to 1000 nM. Further, the area under the curve AUC(0-t) in [1] was 1840 ng·h/mL. The same molecule showed an IC50 against HDAC1 enzyme of 52 nM. This molecule had a half-life at 5 μM in series [2] above 30 min.
With `CCCCc1nc2cc(/C=C/C(=O)NO)ccc2n1CCNC(C)C` [Compound 46, 3-[2-Butyl-1-(2-isopropylamino-ethyl)-1H-benzoimidazol-5-yl]-N-hydroxy-acrylamide], the 50% growth inhibitory concentration (GI50) in the series on PC3 is below 500 nM; in the series on A2780, below 500 nM; in the series with HEP3B, 500 to 1000 nM; in the series on Colo205 cells it was 480 nM; in the series on HCT116, below 500 nM. On HDAC1 enzyme, half-maximal inhibition (IC50) was put at 49 nM. Further, in series [2], the half-life at 5 μM is above 30 min.
Consider `CCCCCCc1nc2cc(/C=C/C(=O)NO)ccc2n1CCN(C)C` [Compound 58, 3-[1-(2-Dimethylamino-ethyl)-2-hexyl-1H-benzoimidazol-5-yl]-N-hydroxy-acrylamide], for which the GI50 was below 500 nM with PC3; below 500 nM in the series with A2780; below 500 nM in the series with HEP3B; 380 nM in the series with Colo205 cells; below 500 nM in the series with HCT116. On HDAC1 enzyme, this molecule gave an IC50 of 30 nM. Besides, the half-life at 5 μM in [2] was above 30 min.
Turning to `CCNCCn1c(CCC(C)(C)C)nc2cc(/C=C/C(=O)NO)ccc21` [Compound 63, 3-[1-(2-ethylamino-ethyl)-2-(3,3-dimethyl-butyl)-1H-benzoimidazol-5-yl]-N-hydroxy-acrylamide], the “Histone Acetylation activities (Histone-3)” value in the series with acetylated histone H3 was “Active”. Besides, the 50% inhibitory concentration (IC50) against HDAC1 enzyme is 51 nM. Besides, the GI50 with Colo205 cells was determined as 540 nM. Moreover, the half-life at 5 μM in series [2] was above 30 min.
For `CCCCCc1nc2cc(/C=C/C(=O)NO)ccc2n1CCNCC` [Compound 68, 3-[1-(2-Ethylamino-ethyl)-2-pentyl-1H-benzoimidazol-5-yl]-N-hydroxy-acrylamide], the “Histone Acetylation activities (Histone-3)” value with acetylated histone H3 was “Active”. Besides, the half-maximal inhibitory concentration (IC50) against HDAC1 enzyme amounted to 34 nM. In the series on Colo205 cells, the GI50 was found to be 520 nM. This molecule also displayed a half-life at 5 μM in series [2] above 30 min.
Consider `CCCCCc1nc2cc(/C=C/C(=O)NO)ccc2n1CCNC(C)C` [Compound 71, N-Hydroxy-3-[1-(2-isopropylamino-ethyl)-2-pentyl-1H-benzoimidazol-5-yl]-acrylamide], for which the GI50 with PC3 is below 500 nM; in the series on A2780 it was below 500 nM; in the series with Colo205 cells, 240 nM; in the series on HCT116, below 500 nM. Further, the “Histone Acetylation activities (Histone-3)” value in the series on acetylated histone H3 is “Active”. This molecule also came in with an IC50 against HDAC1 enzyme of 40 nM. In [2], this molecule returned a half-life at 5 μM above 30 min.
Regarding `CCCCCCc1nc2cc(/C=C/C(=O)NO)ccc2n1CCNC` [Compound 74, 3-[2-Hexyl-1-(2-methylamino-ethyl)-1H-benzoimidazol-5-yl]-N-hydroxy-acrylamide], the “Histone Acetylation activities (Histone-3)” value in the series on acetylated histone H3 is given as “Active”. The half-maximal inhibitory concentration (IC50) against HDAC1 enzyme is 28 nM. In the series on Colo205 cells, the GI50 stood at 550 nM. Further, in series [2], the half-life at 5 μM is above 30 min.
Turning to `CCN(CCn1cnc2cc(/C=C/C(=O)NO)ccc21)CCC(C)(C)C` [Compound 111, 3-(1-{2-[(3,3-Dimethyl-butyl)-ethyl-amino]-ethyl}-1H-benzoimidazol-5-yl)-N-hydroxy-acrylamide], the GI50 was below 500 nM in the series with HEP3B and 210 nM with Colo205 cells. At HDAC1 enzyme, this molecule showed a 50% inhibitory concentration (IC50) of 29 nM.
